Experimental data from US20250161260A1, “USE OF DELTA-TOCOTRIENOL TO REDUCE THE PROGRESSION OF A NEOPLASM TO A CANCER” (H. LEE MOFFITT CANCER CENTER AND RESEARCH INSTITUTE, INC., priority 2022, published 2025).

Tests used:
[1] = human, in vivo
Protocol: (§1) DT3 has been widely used as a dietary supplement for its presumptive benefit in promoting health by decreasing serum cholesterol levels. […] In an NCI-sponsored phase 1 study (NCT00985777), we enrolled 9 out of 25 patients with IPMNs who were treated with DT3 for 2 weeks. […] In our IHC analyses of tumor specimens, we observed a significant induction of cleaved caspase-3 and BAX in the IPMN neoplastic cells of 7 of 9 patients (77%) treated at doses of 100 mg orally twice daily or higher (FIG. 1). We identified 400 mg BID as a Biological Effective Dose (BED) for DT3 in our phase I trial^33. Therefore, we propose to confirm DT3 activity on IPMNs at 400 mg twice daily in a phase II trial, since this was the most bioactive dose observed in our phase I trial.

IPMN neoplastic cells = test: IHC of cleaved caspase-3 and BAX in tumor specimens of patients treated with DT3; assay type: in vivo, human
Protocol: Lower panel is IHC stained for the pro-apoptotic protein Bax, illustrating the association of DT 3 induction of apoptosis with increased expression of Bax
as §1

LGKC1 cells [2] = test: Cell proliferation by MTT assay, LGKC1; assay type: cell-based, murine; details: LGKC1, 48 h
Protocol: (§2) LGKC1 (left) and LGKC2 cells were treated with varying doses of DT3 for 24, 48, and 72 h and cell proliferation were measured by MTT assay.
(§3) We further studied the effect of DT3 on the proliferation of recently described murine IPMN cell lines LGKC1 & LGKC2 derived from constitutively active Kras and Gnas murine model of pancreatic cystic lesions [p48-Cre; KrasG12D; Rosa26R-rtTA-TetO-GnasR201C]. […] These IC50 doses were used for downstream functional studies in LGKC1 and LGKC2 cell lines.

LGKC2 cells [3] = test: Cell proliferation by MTT assay, LGKC2; assay type: cell-based, murine; details: LGKC2, 48 h
Protocol: as §2, §3

LGKC1 cells [4] = test: Apoptosis by flow cytometry (annexin V / propidium iodide), LGKC1; assay type: cell-based, murine; details: LGKC1, IC50 dose, 48 h
Protocol: (§4) LGKC1 (9A, 9C, 9E) and LGKC2 (9B, 9D, 9E) cells were treated with IC50 dose of DT 3 for 48 h. Apoptosis was measured by flow cytometry following annexin V and propidium iodide staining (9A, 9B). For cell cycle analysis by flow cytometry (9C, 9D) cells were synchronized with double thymidine block prior to treatment with DT 3. Following the treatment, cell lysates were prepared and impact on downstream signaling was performed by immunoblotting using the indicated antibodies (9E) and subjected to RNA sequencing (9F).
(§5) To determine if the reduced cell proliferation of IPMN cells by DT3 were due to its impact on cell cycle or cell death, we assayed apoptosis and cell cycle analysis by flow cytometry. […] RNA seq analysis of the treated cells further indicated significant upregulation of biological processes associated with programmed cell death, cell proliferation, immune response, and collagen fibril organization (FIG. 9F).

LGKC2 cells [5] = test: Apoptosis by flow cytometry (annexin V / propidium iodide), LGKC2; assay type: cell-based, murine; details: LGKC2, IC50 dose, 48 h
Protocol: as §4, §5

LGKC1 cells [6] = test: Cell cycle analysis by flow cytometry, LGKC1; assay type: cell-based, murine; details: LGKC-1, IC50 dose, 48 h, double thymidine block
Protocol: as §4, §5

LGKC2 cells [7] = test: Cell cycle analysis by flow cytometry, LGKC2; assay type: cell-based, murine; details: LGKC-2, IC50 dose, 48 h, double thymidine block
Protocol: as §4, §5

LGKC1 cells [8] = test: Immunoblotting of downstream signaling, LGKC1; assay type: cell-based, murine; details: LGKC1, IC50 dose
Protocol: as §4, §5

LGKC2 cells [9] = test: Immunoblotting of downstream signaling, LGKC2; assay type: cell-based, murine; details: LGKC2, IC50 dose
Protocol: as §4, §5

[10] = tested on: Wnt receptor activity in 3T3 cells; test: Wnt receptor activity (luciferase units) in 3T3 cells; assay type: cell-based; details: after Wnt3a
[11] = tested on: β-catenin expression in 3T3 cells; test: β-catenin expression in 3T3 cells; assay type: cell-based
[12] = tested on: β-catenin expression in HPNE-Kras cells; test: β-catenin expression in HPNE-Kras cells; assay type: cell-based
[13] = tested on: β-catenin expression in PCSCs; test: β-catenin expression in human PC stem cells (PCSCs); assay type: cell-based; details: less inhibition with DT 3 without Wnt3a pretreatment
HPNE-Kras cells = test: Apoptosis (C-PARP) and signaling protein expression in HPNE-Kras cells; assay type: cell-based
HPNE cells = test: Apoptosis (C-PARP) in HPNE cells; assay type: cell-based
[14] = 100 mg orally twice daily or higher, 2 weeks

## CC(C)=CCC/C(C)=C/CC/C(C)=C/CC[C@]1(C)CCc2cc(O)cc(C)c2O1 [DT3, δ-tocotrienol]
[1]
  half-life: approximately 4 hours
  toxicity (dose-limiting toxicities, drug-related adverse events, postoperative complications): no evidence of toxicity
IPMN neoplastic cells; [14]
  patients with significant induction of cleaved caspase-3 and BAX in IPMN neoplastic cells: 7 of 9
  percent of patients with significant induction of cleaved caspase-3 and BAX in IPMN neoplastic cells: 77%
IPMN neoplastic cells; patients with IPMN
  apoptosis as measured by cleaved caspase-3 expression (IHC): significantly induced apoptosis
LGKC1 cells [2]
  IC50: 25.3 µM
LGKC2 cells [3]
  IC50: 29.4 µM
LGKC1 cells [4]
  apoptosis: induced apoptosis
LGKC2 cells [5]
  apoptosis: induced apoptosis
LGKC1 cells [6]
  cell cycle progression: G2/M arrest and accumulation of cells in S-phase
LGKC2 cells [7]
  cell cycle progression: no effect on cell cycle progression
LGKC1 cells [8]
  expression of b-catenin: no effect
  p-AKT, p-ERK1/2, cyclin D1: significant reduction
  pGSK3β and cleaved PARP: upregulation
LGKC2 cells [9]
  expression of b-catenin: no effect
  p-AKT, p-ERK1/2, cyclin D1: significant reduction
  pGSK3β and cleaved PARP: upregulation
[10]
  agonist (Wnt3a)-induced Wnt receptor activity (luciferase units): significantly inhibited
[11]
  Wnt agonist-induced β-catenin expression: inhibited
[12]
  β-catenin expression: abolished
[13]
  β-catenin expression: abolished
HPNE-Kras cells
  apoptosis (C-PARP): selectively induced apoptosis
  expression of MUC4, MUC16, β-catenin and downstream proteins (C-myc, cyclin D1, survivin): decreased the expression
  pAKT and pERK: inhibited
HPNE cells
  apoptosis (C-PARP): not in HPNE cells

B1: DKK1: Wnt antagonist (protein, UniProt O94907 32-266, looked up)
Dickkopf-related protein 1: TLNSVLNSNAIKNLPPPLGGAAGHPGSAVSAAPGILYPGGNKYQTIDNYQPYPCAEDEECGTDEYCASPTRGGDAGVQICLACRKRRKRCMRHAMCCPGNYCKNGICVSSDQNHFRGEIEETITESFGNDHSTLDGYSRRTTLSSKMYHTKGQEGSVCLRSSDCASGLCCARHFWSKICKPVLKEGQVCTKHRRKGSHGLEIFQRCYCGEGLSCRIQKDHHQASNSSRLHTCQRH
[10]
  agonist (Wnt3a)-induced Wnt receptor activity (luciferase units): inhibited
[11]
  Wnt agonist-induced β-catenin expression: inhibited
[12]
  β-catenin expression: abolished
[13]
  β-catenin expression: abolished
